Our source for the IC50 and EC50 values is patent US8546608B2, “Proteasome inhibitors and methods of using the same” (Cephalon, Inc., priority 2003, dated 2013).

Where only a bound is given, the exact number is not on record here.

Experiment [1] deals with T1, 20S Human Erythrocyte Proteasome (HEP) (Homo sapiens, UniProt P20618+P28074).
T1 construct: 20S Human Erythrocyte Proteasome (HEP), purchased from Immatics Biotechnologies Inc; purchased Immatics Biotechnologies Inc., Tübingen, Germany; host or cells: human erythrocytes (natural source)
As to the kind of experiment: Chymotrypsin-like activity of 20S Human Erythrocyte Proteasome (HEP), IC50 determination. The conditions noted are these: assay of Example C, inhibition of HEP. The format is biochemical. Put shortly:
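20S proteasome at 0.2 μg/mL (about 0.6 nM catalytic sites) in 20 mM Tris with 0.04% SDS, preincubated 15 min at 37° C with inhibitor before Suc-LLVY-AMC (100 μM final). AMC fluorescence read in the linear range; triplicates, IC50 from concentration series.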

For experiment [2], the target named is T2, proteasome in Molt-4 cells (human leukemia) (Homo sapiens, UniProt P20618+P28074).
T2 sequence (P28074 60-263): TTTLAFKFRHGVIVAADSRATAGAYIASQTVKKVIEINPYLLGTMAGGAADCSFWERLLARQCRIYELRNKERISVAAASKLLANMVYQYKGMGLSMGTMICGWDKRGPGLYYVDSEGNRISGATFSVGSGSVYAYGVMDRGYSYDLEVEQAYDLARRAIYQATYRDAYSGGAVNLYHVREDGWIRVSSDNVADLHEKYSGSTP
T2 sequence (P20618 29-241): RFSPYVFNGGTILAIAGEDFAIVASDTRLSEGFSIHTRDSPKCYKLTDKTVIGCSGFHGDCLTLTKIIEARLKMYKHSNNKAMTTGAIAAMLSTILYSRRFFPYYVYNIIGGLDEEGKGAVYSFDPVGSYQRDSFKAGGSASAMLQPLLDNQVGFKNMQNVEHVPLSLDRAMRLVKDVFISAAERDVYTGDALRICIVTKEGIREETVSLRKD
The format is cell-based. The note with it: assay of Example E, inhibition of MOLT4; read-out: MOLT4 (EC50). Put shortly: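 Intact Molt-4 cells (6×10^6 cells/mL) in HEPES-buffered saline were preincubated with inhibitor 15 min at 37 °C, then given cell-permeable MeOSuc-FLF-AFC at 25 μM final.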

In the case of `CC(=O)SCCCCCC(=O)N[C@@H](CCCNC(=N)N[N+](=O)[O-])C(=O)N[C@@H](CC(C)C)B1O[C@@H]2C[C@@H]3C[C@@H](C3(C)C)[C@]2(C)O1` [D.3.161, 6-(Acetylsulfanyl)hexanamide,N-[(1S)-1-[[[(1R)-1-[(3aS,4S,6S,7aR)-hexahydro-3a,5,5-trimethyl-4,6-methano-1,3,2-benzodioxaborol-2-yl]-3-methylbutyl]amino]carbonyl]-4-[[imino(nitroamino)methyl]amino]butyl]], the IC50 in experiment [1] is less than 0.01 µM. Also, in experiment [2], the EC50 was 0.2 to 2 µM.
As to `CC(C)C[C@H](NC(=O)[C@@H](NC(=O)c1ccccc1)[C@@H](C)O)B1O[C@@H]2C[C@@H]3C[C@@H](C3(C)C)[C@]2(C)O1` [D.3.174, Benzamide,N-[(1S,2R)-1-[[[(1R)-1-[(3aS,4S,6S,7aR)-hexahydro-3a,5,5-trimethyl-4,6-methano-1,3,2-benzodioxaborol-2-yl]-3-methylbutyl]amino]carbonyl]-2-hydroxypropyl]], in experiment [1], the IC50 was less than 0.1 µM. Besides, in experiment [2], the EC50 was less than 0.2 µM.
`COCCOCCOCC(=O)N[C@H](C(=O)N[C@@H](CC(C)C)B1O[C@@H]2C[C@@H]3C[C@@H](C3(C)C)[C@]2(C)O1)[C@@H](C)O` [D.3.175, 2-[2-(2-Methoxyethoxy)ethoxy]acetamide,N-[(1S,2R)-1-[[[(1R)-1-[(3aS,4S,6S,7aR)-hexahydro-3a,5,5-trimethyl-4,6-methano-1,3,2-benzodioxaborol-2-yl]-3-methylbutyl]amino]carbonyl]-2-hydroxypropyl]] returned an IC50 in experiment [1] of less than 0.1 µM. Moreover, the EC50 in experiment [2] lay within 0.2 to 2 µM.
The corresponding values for `CC(C)C[C@H](NC(=O)[C@@H](NC(=O)CCCc1ccccc1)[C@@H](C)O)B1O[C@@H]2C[C@@H]3C[C@@H](C3(C)C)[C@]2(C)O1` [D.3.176, 4-Phenylbutanamide,N-[(1S,2R)-1-[[[(1R)-1-[(3aS,4S,6S,7aR)-hexahydro-3a,5,5-trimethyl-4,6-methano-l53.2-benzodioxaborol-2-yl]-3-methylbutyl]amino]carbonyl]-2-hydroxypropyl]] are less than 0.01 µM and less than 0.2 µM.
The compound `Cc1ccc(OCC(=O)N[C@H](C(=O)N[C@@H](CC(C)C)B2O[C@@H]3C[C@@H]4C[C@@H](C4(C)C)[C@]3(C)O2)[C@@H](C)O)cc1` [D.3.177, (4-Methylphenoxy)acetamide,N-[(1S,2R)-1-[[[(1R)-1-[(3aS,4S,6S,7aR)-hexahydro-3a,5,5-trimethyl-4,6-methano-1,3,2-benzodioxaborol-2-yl]-3-methylbutyl]amino]carbonyl]-2-hydroxypropyl]] showed an IC50 in experiment [1] of less than 0.01 µM. Moreover, in experiment [2], the EC50 is less than 0.2 µM.
For the compound `CCCCCC(=O)N[C@H](C(=O)N[C@@H](CC(C)C)B1O[C@@H]2C[C@@H]3C[C@@H](C3(C)C)[C@]2(C)O1)[C@@H](C)O` [D.3.178, Hexanamide,N-[(1S,2R)-1-[[[(1R)-1-[(3aS,4S,6S,7aR)-hexahydro-3a,5,5-trimethyl-4,6-methano-1,3,2-benzodioxaborol-2-yl]-3-methylbutyl]amino]carbonyl]-2-hydroxypropyl]], the IC50 in experiment [1] is less than 0.1 µM. Besides, the EC50 in experiment [2] is less than 0.2 µM.
On the same counts, the results for `CCCCc1ccc(C(=O)N[C@H](C(=O)N[C@@H](CC(C)C)B2O[C@@H]3C[C@@H]4C[C@@H](C4(C)C)[C@]3(C)O2)[C@@H](C)O)cc1` [D.3.179, 4-butylbenzamide, N-[(1S,2R)-1-[[[(1R)-1-[(3aS,4S,6S,7aR)-hexahydro-3a,5,5-trimethyl-4,6-methano-1,3,2-benzodioxaborol-2-yl]-3-methylbutyl]amino]-carbonyl]-2-hydroxypropyl]-] are less than 0.01 µM and less than 0.2 µM.
On the same counts, the results for `CC(C)C[C@H](NC(=O)[C@@H](NC(=O)c1ccc2ccccc2c1)[C@@H](C)O)B1O[C@@H]2C[C@@H]3C[C@@H](C3(C)C)[C@]2(C)O1` [D.3.180, Naphthalene-2-carboxamide,N-[(1S,2R)-1-[[[(1R)-1-[(3aS,4S,6S,7aR)-hexahydro-3a,5,5-trimethyl-4,6-methano-1,3,2-benzodioxaborol-2-yl]-3-methylbutyl]amino]carbonyl]-2-hydroxypropyl]] are less than 0.01 µM and less than 0.2 µM.
Turning to `Cc1ccc(S(=O)(=O)CC(=O)N[C@@H](CCCNC(=N)N[N+](=O)[O-])C(=O)N[C@@H](CC(C)C)B2O[C@@H]3C[C@@H]4C[C@@H](C4(C)C)[C@]3(C)O2)cc1` [D.3.182], the IC50 in experiment [1] was less than 0.1 µM. Besides, the EC50 in experiment [2] lay within 0.2 to 2 µM.
Regarding `CC(C)C[C@H](NC(=O)[C@H](CCCNC(=N)N[N+](=O)[O-])NC(=O)CS(=O)(=O)c1ccccc1)B1O[C@@H]2C[C@@H]3C[C@@H](C3(C)C)[C@]2(C)O1` [D.3.185, 2-(Benzenesulfonyl)acetamide,N-[(1S)-1-[[[(1R)-1-[(3aS,4S,6S,7aR)-hexahydro-3a,5,5-trimethyl-4,6-methano-1,3,2-benzodioxaborol-2-yl]-3-methylbutyl]amino]carbonyl]-4-[[imino(nitroamino)methyl]amino]butyl]], the IC50 in experiment [1] is less than 0.01 µM. Also, the EC50 in experiment [2] is less than 0.2 µM.
`CC(C)C[C@H](NC(=O)[C@H](CCCNC(=N)N[N+](=O)[O-])NC(=O)CCCCCCCCC#N)B1O[C@@H]2C[C@@H]3C[C@@H](C3(C)C)[C@]2(C)O1` [D.3.186, 9-Cyanononamide, N-[(1S)-1-[[[(1R)-1-[(3aS,4S,6S,7aR)-hexahydro-3a,5,5-trimethyl-4,6-methano-1,3,2-benzodioxaborol-2-yl]-3-methylbutyl]amino]carbonyl]-4-[[imino(nitroamino)methyl]amino]butyl]] showed an IC50 in experiment [1] of less than 0.01 µM. Also, in experiment [2], the EC50 was less than 0.2 µM.
In turn, `CC(C)C[C@H](NC(=O)[C@H](CCCNC(=N)N[N+](=O)[O-])NC(=O)CCCCCCCCCCCN1C(=O)c2ccccc2C1=O)B1O[C@@H]2C[C@@H]3C[C@@H](C3(C)C)[C@]2(C)O1` [D.3.189, 12-(1,3-Dioxo-1,3-dihydro-isoindol-2-yl)-dodecanamide, N-[(1S)-1-[[[(1R)-1-[(3aS,4S,6S,7aR)-hexahydro-3a,5,5-trimethyl-4,6-methano-1,3,2-benzodioxaborol-2-yl]-3-methylbutyl]amino]carbonyl]-4-[[imino(nitroamino)methyl]amino]butyl]] showed an IC50 in experiment [1] of less than 0.01 µM. Besides, the EC50 in experiment [2] is less than 0.2 µM.
In turn, `CC(C)C[C@H](NC(=O)[C@H](CCCNC(=N)N[N+](=O)[O-])NC(=O)CCc1ccc(C(C)C)cc1)B1O[C@@H]2C[C@@H]3C[C@@H](C3(C)C)[C@]2(C)O1` [D.3.190, 3-[4-(2-Propyl)phenyl]propanamide, N-[(1S)-1-[[[(1R)-1-[(3aS,4S,6S,7aR)-hexahydro-3a,5,5-trimethyl-4,6-methano-1,3,2-benzodioxaborol-2-yl]-3-methylbutyl]amino]carbonyl]-4-[[imino(nitroamino)methyl]amino]butyl]] gave an IC50 in experiment [1] of less than 0.01 µM. The EC50 in experiment [2] was less than 0.2 µM.
`CCc1ccc(CCC(=O)N[C@@H](CCCNC(=N)N[N+](=O)[O-])C(=O)N[C@@H](CC(C)C)B2O[C@@H]3C[C@@H]4C[C@@H](C4(C)C)[C@]3(C)O2)cc1` [D.3.191, 3-[4-(Ethyl)phenyl]propanamide, N-[(1S)-1-[[[(1R)-1-[(3aS,4S,6S,7aR)-hexahydro-3a,5,5-trimethyl-4,6-methano-1,3,2-benzodioxaborol-2-yl]-3-methylbutyl]amino]carbonyl]-4-[[imino(nitroamino)methyl]amino]butyl]] registered an IC50 in experiment [1] of less than 0.01 µM. Also, the EC50 in experiment [2] was less than 0.2 µM.
`CC(C)C[C@H](NC(=O)[C@H](CCCNC(=N)N[N+](=O)[O-])NC(=O)CCCCCO)B1O[C@@H]2C[C@@H]3C[C@@H](C3(C)C)[C@]2(C)O1` [D.3.192, 6-hydroxyhexanamide, N-[(1S)-1-[[[(1R)-1-[(3aS,4S,6S,7aR)-hexahydro-3a,5,5-trimethyl-4,6-methano-1,3,2-benzodioxaborol-2-yl]-3-methylbutyl]amino]carbonyl]-4-[[imino(nitroamino)methyl]amino]butyl]]: in experiment [1], the IC50 is less than 0.1 µM. In addition, the EC50 in experiment [2] lay in the range of 2 to 10 µM.
`CCCCCCCCCCS(=O)(=O)N[C@@H](CCCNC(=N)N[N+](=O)[O-])C(=O)N[C@@H](CC(C)C)B1O[C@@H]2C[C@@H]3C[C@@H](C3(C)C)[C@]2(C)O1` [D.4.3, Decane-1-sulfonamide, N-[(1S)-1-[[[(1R)-1-[(3aS,4S,6S,7aR)-hexahydro-3a,5,5-trimethyl-4,6-methano-1,3,2-benzodioxaborol-2-yl]-3-methylbutyl]amino]carbonyl]-4-[[imino(nitroamino)methyl]amino]butyl]] yielded an IC50 in experiment [1] of less than 0.01 µM. Also, in experiment [2], the EC50 was less than 0.2 µM.
On the same counts, the results for `CCCCCCCCS(=O)(=O)N[C@@H](CCCNC(=N)N[N+](=O)[O-])C(=O)N[C@@H](CC(C)C)B1O[C@@H]2C[C@@H]3C[C@@H](C3(C)C)[C@]2(C)O1` [D.4.4, Octanesulfonamide, N-[(1S)-1-[[[(1R)-1-[(3aS,4S,6S,7aR)-hexahydro-3a,5,5-trimethyl-4,6-methano-1,3,2-benzodioxaborol-2-yl]-3-methylbutyl]amino]carbonyl]-4-[[imino(nitroamino)methyl]amino]butyl]] are less than 0.01 µM and less than 0.2 µM.

One may read the IC50 as the midpoint of a concentration-inhibition curve. Read a low IC50 as greater potency. One may read the EC50 as the concentration that produces a half-maximal response.
